Test results taken from article PMC7992063 (ACS Omega, 2021).
pEC50, pIC50, pKd: −log10 of the molar value. Entries after “also recorded” stand apart in the source; their conditions may differ. Where two headings read alike, the source gives them in different places.

Experiments:
[1] = tested on: SARS-CoV-2 (isolate USA WA1/2020); experiment: microbe, parasite or virus in culture; format: cell-based; settings: for pIC50: Severe acute respiratory syndrome coronavirus 2, Calu-3, read-out: IC50 (EC50), infection (dsRNA+ cells/total cell number)
SARS-CoV-2 [2] = experiment: microbe, parasite or virus in culture; format: cell-based
SARS-CoV-2 [3] = format: cell-based; settings: 10 μM; 24 h
SARS-CoV-2 [4] = settings: cited from earlier work
[5] = molecular target: SARS-CoV-2 spike receptor binding domain (RBD) (Severe acute respiratory syndrome coronavirus 2, UniProt P0DTC2)
in vitro [6] = settings: African green monkey
Vero 76 cells = settings: African green monkey
EBOV glycoprotein = settings: cited from earlier work
[7] = tested on: SARS-CoV-2 (Strain USA_WA1/2020); experiment: microbe, parasite or virus in culture; format: cell-based; settings: Severe acute respiratory syndrome coronavirus 2, Caco-2, 72 h
[8] = tested on: murine hepatitis virus (MHV); experiment: microbe, parasite or virus in culture; format: cell-based; settings: Murine coronavirus
SARS-CoV-2-nLuc = experiment: microbe, parasite or virus in culture; format: cell-based; settings: Severe acute respiratory syndrome coronavirus 2, A549-ACE2
[9] = tested on: SARS-CoV-2 (Strain USA_WA1/2020); experiment: microbe, parasite or virus in culture; format: cell-based
SARS-CoV-2 [10] = format: cell-based
in vitro [11] = settings: human
HCoV 229E = format: cell-based, human coronavirus 229E
SARS-CoV-2 pseudovirus = settings: mouse, in vivo; cited from earlier work
spike RBD = settings: read-out: affinity for spike RBD; cited from earlier work
lysosomal pH = settings: read-out: IC50, lysosomotropic; cited from earlier work
SARS-CoV-2 [12] = settings: cited from earlier work; remark: listed apart in the source
rVSV-SARS-CoV-2 S = format: cell-based
SARS-CoV-2 [13] = format: cell-based; remark: listed apart in the source
Calu-3 cells = settings: cited from earlier work
Vero cells = settings: cited from earlier work
[14] = Severe acute respiratory syndrome coronavirus 2, Vero 76

CCC(CC)COC(=O)[C@H](C)N[P@](=O)(OC[C@H]1O[C@@](C#N)(c2ccc3c(N)ncnn23)[C@H](O)[C@@H]1O)Oc1ccccc1 [remdesivir]
pIC50 [1]: 7.80
inhibition at 0.6 µM (SARS-CoV-2 [2]; Severe acute respiratory syndrome coronavirus 2, Calu-3, read-out: inhibition PFU/mL): ~100%
inhibition of SARS-CoV-2, cell-associated viral RNA levels (SARS-CoV-2 [3]): ~50%

CCN(CC)CCCC(C)Nc1c2ccc(Cl)cc2nc2ccc(OC)cc12 (stereo not shown) [quinacrine]
activity against SARS-CoV-2 in Calu-3 [1]: no in vitro activity
pEC50 (SARS-CoV-2 [4]): 5.55
binding to spike RBD [5]: did not demonstrate reproducible binding
CC50 (in vitro [6]): 7.33 µM
CC50 (Vero 76 cells): 6.87 µM
pKd (EBOV glycoprotein): 5.12
EC90 [7]: 10.5 µM
pIC50 [8]: 5.64
pIC50 (SARS-CoV-2-nLuc): > 6.70
pEC50 [9]: < 5.16
activity against SARS-CoV-2 in Vero 76 [9]: no in vitro activity
pEC50 [9, 14]: < 5.13
activity against SARS-CoV-2 in Vero E6 (SARS-CoV-2 [10]): no in vitro activity; also recorded: no inhibition
CC50 (in vitro [11]): 229 µM
decrease of virus titer (HCoV 229E): 3.9 logTCID50/mL
infected cells (SARS-CoV-2 pseudovirus): significant decrease

ACE2
pKd (spike RBD): ~7.82

CCN(CC)CCOc1ccc2c(c1)C(=O)c1cc(OCCN(CC)CC)ccc1-2 [tilorone]
pIC50 [1]: 4.97
pIC50 (SARS-CoV-2 [2]; Severe acute respiratory syndrome coronavirus 2, Calu-3, 48 h): ~5.05
weaker affinity for spike RBD compared to ACE2 [5]: 20–40 times
CC50 (in vitro [6]): 49.6 µM
pKd (EBOV glycoprotein): 6.14
pIC50 (lysosomal pH): ~5.40
EC90 [7]: 29 µM
pIC50 [8]: ~4.70
pIC50 (SARS-CoV-2 [12]): 5.40
pIC50 (SARS-CoV-2-nLuc): 6.74
pEC50 [9, 14]: 5.18
activity in VSV-pseudotype neutralization assay (rVSV-SARS-CoV-2 S): no measurable activity
neutralization (rVSV-SARS-CoV-2 S): < 50%
antiviral activity (SARS-CoV-2 [13]): did not show antiviral activity
activity against SARS-CoV-2 in Vero E6 (SARS-CoV-2 [10]): no inhibition
CC50 (in vitro [11]): 111 µM
inhibition of HCoV-229E (HCoV 229E): did not show significant inhibition

COc1ccc2nc3cc(Cl)ccc3c(Nc3cc(CN4CCCC4)c(O)c(CN4CCCC4)c3)c2n1 [pyronaridine, 4-[(7-chloro-2-methoxybenzo[b][1,5]naphthyridin-10-yl)amino]-2,6-bis(1-pyrrolidinylmethyl)phenol phosphate (1:4)]
activity against SARS-CoV-2 in Calu-3 [1]: no activity
weaker affinity for spike RBD compared to ACE2 [5]: 20–40 times
CC50 (in vitro [6]): 3.52 µM
CC50 (Vero 76 cells): 3.85 µM
pKd (EBOV glycoprotein): 5.13
EC90 [7]: 5.49 µM
pIC50 [8]: 5.56
pIC50 (SARS-CoV-2-nLuc): 6.70
pEC50 [9]: < 5.41
activity against SARS-CoV-2 in Vero 76 [9]: no activity
pEC50 [9, 14]: < 5.45
activity in VSV-pseudotype neutralization assay (rVSV-SARS-CoV-2 S): no measurable activity
neutralization (rVSV-SARS-CoV-2 S): < 50%
CC50 (Calu-3 cells): 43.1 µM
CC50 (Vero cells): 37.1 µM
activity against SARS-CoV-2 in Vero E6 (SARS-CoV-2 [10]): no activity; also recorded: no inhibition
CC50 (in vitro [11]): 51.6 µM
decrease of virus titer (HCoV 229E): 2.83 logTCID50/mL
